Reference: paper PMC5701133, “Structural Mechanism of the Oxygenase JMJD6 Recognition by the Extraterminal (ET) Domain of BRD4” (Scientific Reports, 2017)

Columns and labels:
JMJD6 = settings: biochemical study; ref [21]; cited from earlier work
[1] = test system: BRD4 and JMJD6 interaction; assay: Co-immunoprecipitation with added nucleic acid: BRD4/JMJD6 association; type: binding; settings: for association of Flag-BRD4WT with JMJD6 on addition of nucleic acid (in words): double-transfected Flag-BRD4 and His-JMJD6 HEK293T lysate, 1 μM ssRNA, dsDNA or ssDNA; for BRD4/JMJD6 association, endogenous and single-transfected IP, on addition of nucleic acid (in words): endogenous and single-transfected HEK293T IP experiments
Method: Incubate at 4 °C overnight.

Substance | interaction with JMJD6 (in words) (JMJD6) | association of Flag-BRD4WT with JMJD6 on addition of nucleic acid (in words) [1] | BRD4/JMJD6 association, endogenous and single-transfected IP, on addition of nucleic acid (in words) [1]
ssRNA: 5′-AUACGAUGCUUUACGGUGCUAUUUUGU-3′; 27 nt (RNA, backbone not given here) | can interact | appears much stronger | no additional effect
ssDNA: 5′-TTTCTAGATCAGGAGCTGTCGGAAGCTATCC-3′; 31 nt (DNA, backbone not given here) |  | no improvements on JMJD6 interaction with BRD4 | no additional effect
